According to PubChem BioAssay (NCI):
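Assay format: 96-well plates, 48-hour exposure. The concentration for full growth arrest is given as TGI.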

What was measured:
Test in all cases: NCI anticancer screen, dose series, 48 h
786-0 renal = system: 786-0 renal
A498 renal = system: A498 renal
A549 NSCLC = system: A549 NSCLC
ACHN renal = system: ACHN renal
BT-549 breast = system: BT-549 breast
CAKI-1 renal = system: CAKI-1 renal
CCRF-CEM leukemia = system: CCRF-CEM leukemia
COLO 205 colon = system: COLO 205 colon
DU-145 prostate = system: DU-145 prostate
EKVX NSCLC = system: EKVX NSCLC
HCC-2998 colon = system: HCC-2998 colon
HCT-116 colon = system: HCT-116 colon
HCT-15 colon = system: HCT-15 colon
HL-60(TB) leukemia = system: HL-60(TB) leukemia
HOP-62 NSCLC = system: HOP-62 NSCLC
HOP-92 NSCLC = system: HOP-92 NSCLC
HS 578T breast = system: HS 578T breast
HT29 colon = system: HT29 colon
IGROV1 ovarian = system: IGROV1 ovarian
K-562 leukemia = system: K-562 leukemia
KM12 colon = system: KM12 colon
LOX IMVI melanoma = system: LOX IMVI melanoma
M14 melanoma = system: M14 melanoma
MALME-3M melanoma = system: MALME-3M melanoma
MCF7 breast = system: MCF7 breast
MDA-MB-231 breast = system: MDA-MB-231 breast
MDA-MB-435 = system: MDA-MB-435
MDA-N = system: MDA-N
MOLT-4 leukemia = system: MOLT-4 leukemia
NCI-H226 lung = system: NCI-H226 lung
NCI-H23 lung = system: NCI-H23 lung
NCI-H460 lung = system: NCI-H460 lung
NCI-H522 lung = system: NCI-H522 lung
NCI/ADR-RES ovarian = system: NCI/ADR-RES ovarian
OVCAR-3 ovarian = system: OVCAR-3 ovarian
OVCAR-5 ovarian = system: OVCAR-5 ovarian
OVCAR-8 ovarian = system: OVCAR-8 ovarian
PC-3 prostate = system: PC-3 prostate
RPMI-8226 leukemia = system: RPMI-8226 leukemia
RXF 393 renal = system: RXF 393 renal
SF-268 CNS = system: SF-268 CNS
SF-539 CNS = system: SF-539 CNS
SK-MEL-2 melanoma = system: SK-MEL-2 melanoma
SK-MEL-28 melanoma = system: SK-MEL-28 melanoma
SK-MEL-5 melanoma = system: SK-MEL-5 melanoma
SK-OV-3 ovarian = system: SK-OV-3 ovarian
SN12C renal = system: SN12C renal
SNB-19 CNS = system: SNB-19 CNS
SNB-75 CNS = system: SNB-75 CNS
SR leukemia = system: SR leukemia
SW-620 colon = system: SW-620 colon
T-47D breast = system: T-47D breast
TK-10 renal = system: TK-10 renal
U251 CNS = system: U251 CNS
UACC-257 melanoma = system: UACC-257 melanoma
UACC-62 melanoma = system: UACC-62 melanoma
UO-31 renal = system: UO-31 renal
OVCAR-4 ovarian = system: OVCAR-4 ovarian
SF-295 CNS = system: SF-295 CNS

SMILES: CCOC(=O)C(NC(=O)Nc1ccccc1)(Nc1cccc(Cl)c1)C(F)(F)F (configuration not stated)
- TGI (786-0 renal): > 100 µM
- TGI (A498 renal): > 100 µM
- TGI (A549 NSCLC): > 100 µM
- TGI (ACHN renal): > 100 µM
- TGI (BT-549 breast): > 100 µM
- TGI (CAKI-1 renal): > 100 µM
- TGI (CCRF-CEM leukemia): > 100 µM
- TGI (COLO 205 colon): > 100 µM
- TGI (DU-145 prostate): > 100 µM
- TGI (EKVX NSCLC): > 100 µM
- TGI (HCC-2998 colon): > 100 µM
- TGI (HCT-116 colon): > 100 µM
- TGI (HCT-15 colon): > 100 µM
- TGI (HL-60(TB) leukemia): > 100 µM
- TGI (HOP-62 NSCLC): > 100 µM
- TGI (HOP-92 NSCLC): 94.6 µM
- TGI (HS 578T breast): > 78.4 µM
- TGI (HT29 colon): > 100 µM
- TGI (IGROV1 ovarian): > 100 µM
- TGI (K-562 leukemia): > 100 µM
- TGI (KM12 colon): > 100 µM
- TGI (LOX IMVI melanoma): > 100 µM
- TGI (M14 melanoma): > 100 µM
- TGI (MALME-3M melanoma): > 100 µM
- TGI (MCF7 breast): > 100 µM
- TGI (MDA-MB-231 breast): > 100 µM
- TGI (MDA-MB-435): > 100 µM
- TGI (MDA-N): > 100 µM
- TGI (MOLT-4 leukemia): > 100 µM
- TGI (NCI-H226 lung): > 100 µM
- TGI (NCI-H23 lung): > 100 µM
- TGI (NCI-H460 lung): > 100 µM
- TGI (NCI-H522 lung): > 100 µM
- TGI (NCI/ADR-RES ovarian): > 100 µM
- TGI (OVCAR-3 ovarian): > 100 µM
- TGI (OVCAR-5 ovarian): > 100 µM
- TGI (OVCAR-8 ovarian): > 100 µM
- TGI (PC-3 prostate): > 100 µM
- TGI (RPMI-8226 leukemia): > 100 µM
- TGI (RXF 393 renal): > 100 µM
- TGI (SF-268 CNS): > 100 µM
- TGI (SF-539 CNS): > 100 µM
- TGI (SK-MEL-2 melanoma): > 100 µM
- TGI (SK-MEL-28 melanoma): > 100 µM
- TGI (SK-MEL-5 melanoma): > 100 µM
- TGI (SK-OV-3 ovarian): > 100 µM
- TGI (SN12C renal): > 100 µM
- TGI (SNB-19 CNS): > 100 µM
- TGI (SNB-75 CNS): > 100 µM
- TGI (SR leukemia): > 100 µM
- TGI (SW-620 colon): > 100 µM
- TGI (T-47D breast): > 100 µM
- TGI (TK-10 renal): > 100 µM
- TGI (U251 CNS): > 100 µM
- TGI (UACC-257 melanoma): > 100 µM
- TGI (UACC-62 melanoma): > 100 µM
- TGI (UO-31 renal): > 100 µM

SMILES: O=c1[nH]nc(Nc2ccccc2)c2nnn(Cc3ccccc3)c12
- TGI (786-0 renal): > 100 µM
- TGI (A498 renal): > 100 µM
- TGI (A549 NSCLC): > 100 µM
- TGI (ACHN renal): > 100 µM
- TGI (BT-549 breast): > 100 µM
- TGI (CAKI-1 renal): > 100 µM
- TGI (CCRF-CEM leukemia): > 100 µM
- TGI (COLO 205 colon): > 100 µM
- TGI (DU-145 prostate): > 100 µM
- TGI (EKVX NSCLC): > 100 µM
- TGI (HCC-2998 colon): > 100 µM
- TGI (HCT-116 colon): > 100 µM
- TGI (HCT-15 colon): > 100 µM
- TGI (HL-60(TB) leukemia): > 100 µM
- TGI (HOP-62 NSCLC): 24 µM
- TGI (HOP-92 NSCLC): > 100 µM
- TGI (HS 578T breast): 90.4 µM
- TGI (HT29 colon): > 100 µM
- TGI (IGROV1 ovarian): > 100 µM
- TGI (K-562 leukemia): > 100 µM
- TGI (KM12 colon): > 100 µM
- TGI (LOX IMVI melanoma): > 100 µM
- TGI (M14 melanoma): > 100 µM
- TGI (MCF7 breast): > 100 µM
- TGI (MDA-MB-231 breast): > 100 µM
- TGI (MDA-MB-435): > 100 µM
- TGI (MDA-N): > 100 µM
- TGI (MOLT-4 leukemia): > 100 µM
- TGI (NCI-H226 lung): > 100 µM
- TGI (NCI-H23 lung): > 100 µM
- TGI (NCI-H460 lung): > 100 µM
- TGI (NCI-H522 lung): > 100 µM
- TGI (NCI/ADR-RES ovarian): > 100 µM
- TGI (OVCAR-4 ovarian): > 100 µM
- TGI (OVCAR-5 ovarian): > 100 µM
- TGI (OVCAR-8 ovarian): > 100 µM
- TGI (PC-3 prostate): > 100 µM
- TGI (RXF 393 renal): > 100 µM
- TGI (SF-268 CNS): > 100 µM
- TGI (SF-295 CNS): > 100 µM
- TGI (SF-539 CNS): > 100 µM
- TGI (SK-MEL-2 melanoma): > 100 µM
- TGI (SK-MEL-28 melanoma): > 100 µM
- TGI (SK-MEL-5 melanoma): > 100 µM
- TGI (SN12C renal): > 100 µM
- TGI (SNB-19 CNS): > 100 µM
- TGI (SNB-75 CNS): 85.3 µM
- TGI (SR leukemia): > 100 µM
- TGI (SW-620 colon): > 100 µM
- TGI (T-47D breast): > 100 µM
- TGI (TK-10 renal): > 100 µM
- TGI (U251 CNS): > 100 µM
- TGI (UACC-257 melanoma): > 100 µM
- TGI (UACC-62 melanoma): > 100 µM
- TGI (UO-31 renal): > 100 µM
